Data set [1] in a line: Second order rate constant of the reaction between miniprotein (MP) and capture agent (CA), LC-MS TIC peak integration. It counts as biochemical. The note with it: for Rate: Table 4, reaction rates of self-labeling miniprotein sequences; for Second order rate constant: 0.1 mM MP, 0.5 mM CA; for fold increase of second order rate constant relative to MP01 / reactivity with the CA (in words): standard reaction conditions.

In the next data set the target is T1, proteinase K (Parengyodontium album, UniProt P06873).
T1 construct: purchased Amresco
T1 sequence (P06873 106-384): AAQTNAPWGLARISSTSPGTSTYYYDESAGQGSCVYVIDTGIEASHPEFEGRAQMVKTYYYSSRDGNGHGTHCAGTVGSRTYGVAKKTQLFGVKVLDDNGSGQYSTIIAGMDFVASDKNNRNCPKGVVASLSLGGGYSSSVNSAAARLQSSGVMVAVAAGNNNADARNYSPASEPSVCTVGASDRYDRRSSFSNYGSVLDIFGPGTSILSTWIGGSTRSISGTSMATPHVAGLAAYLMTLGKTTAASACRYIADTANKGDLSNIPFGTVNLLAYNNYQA
Briefly: Protease digestion with proteinase K (LC-MS fraction remaining). Format: in vitro ADME. To be noted: 100 μM peptide. How it is done:
Reactions were performed using 100 μM peptide with […] of proteinase K for general cleavage with the addition of 1 mM CA for C11A and C11S digestions. Reactions were quenched with 49.75% water, 49.75% ACN and 0.5% TFA at selection time point and analyzed by LCMS. TIC-based integrated peak areas were used to determine the amount of material in a given time point normalized to the starting amount. These normalized values there then concerted to fraction remaining and plotted as shown.

Setting [2] is: 5 mM TCEP, 1× selection buffer pH 7.4, RT.
The mark [3] stands for this setting: 5 mM TCEP, 1× selection buffer pH 7.4, RT, a: average of three MP concentrations, c: labeled 1-3 times, d: labeled 1-2 times.

Results on 36 molecules are retold here after patent US11014961B2, “Self-labeling miniproteins and conjugates comprising them” (priority 2017, dated 2021).

Residues, ends and D or L forms follow the SMILES beside them. No end group written: not given here. *: point of attachment. X1 = O=C(CCCC[C@@H]1SC[C@@H]2NC(=O)N[C@@H]21)NCCCC[C@H](NC(=O)CCOCCOCCOCCOCCOCCOCCOCCOCCOCCOCCOCCOCCSc1c(F)c(F)c(Sc2c(F)c(F)c(*)c(F)c2F)c(F)c1F)C(=O)O

As for “MTATSSSTSRGCRPSTAQVVQRLRGLLLVVG-NH2 [MP26]”, in data set [1], the Rate worked out at 0.07 M⁻¹ s⁻¹.
As for MRPCARRDRTLWCPFDSPAWFLLSGFSCG [MP05], the “Second order rate constant” value in data set [1] (setting [2]) is 0.93 ± 0.11 M⁻¹ s⁻¹; in data set [1] (setting [3]), 0.93 ± 0.11^c M^−1 s^−1.
“MHHYCSKMKRRILMHYLFANTMAHRDLGTNG-NH2 [MP15]”: the Rate in data set [1] came out at 10.09 M⁻¹ s⁻¹.
In the case of “MHQKYKMAKACFFAFLAHLKKRKLYPMSG-NH2 [MP01-Gen2]”, the “fold increase of second order rate constant relative to MP01” value in data set [1] was 32.2 fold.
Regarding “MHTSLRSRAKSHSRSFGKCASIYTRYLKMG-NH2 [MP20]”, the Rate in data set [1] came to 1.22 M⁻¹ s⁻¹.
The molecule “MVKLSGKERTTRNCFFSFLASRRTKKFNNLSG-NH2 [MP12]” yielded a Rate in data set [1] of 0.23 M⁻¹ s⁻¹.
Regarding “MGIVHNATRFPKRCFYSFIATRQSKNSIRVSG-NH2 [MP06]”, the “Second order rate constant” value in data set [1] (setting [3]) is 0.11 ± 0.01 M⁻¹ s⁻¹.
In the case of “MHAKYKMAKACFFAFLAHLKKRKLYPMSG-NH2 [Gen 2-Q3A]”, in data set [1], the “reactivity with the CA (in words)” value was “no alteration”.
With `CSCC[C@H](NC(=O)[C@H](CCCCN)NC(=O)[C@H](Cc1ccc(O)cc1)NC(=O)[C@H](CCCCN)NC(=O)[C@H](CCC(N)=O)NC(=O)[C@H](CC(N)=O)NC(=O)[C@@H](N)CCSC)C(=O)N[C@@H](C)C(=O)N[C@@H](CCCCN)C(=O)N[C@@H](C)C(=O)N[C@@H](CSc1c(F)c(F)c(Sc2c(F)c(F)c(SCCOCCOCCOCCOCCOCCOCCOCCOCCOCCOCCOCCOCCC(=O)N[C@@H](CCCCNC(=O)CCCC[C@@H]3SC[C@@H]4NC(=O)N[C@@H]43)C(=O)O)c(F)c2F)c(F)c1F)C(=O)N[C@@H](Cc1ccccc1)C(=O)N[C@@H](Cc1ccccc1)C(=O)N[C@@H](C)C(=O)N[C@@H](Cc1ccccc1)C(=O)N[C@@H](CC(C)C)C(=O)N[C@@H](CCC(=O)O)C(=O)N[C@@H](Cc1c[nH]cn1)C(=O)N[C@@H](CC(C)C)C(=O)N[C@@H](CCCCN)C(=O)N[C@@H](CCCCN)C(=O)N[C@@H](CCCNC(=N)N)C(=O)N[C@@H](CCCCN)C(=O)N[C@@H](CC(C)C)C(=O)N[C@@H](Cc1ccc(O)cc1)C(=O)N1CCC[C@H]1C(=O)N[C@@H](CCSC)C(=O)N[C@@H](CO)C(=O)NCC(N)=O` [Gen4-CA] (H-MNQKYKMAKAC(X1)FFAFLEHLKKRKLYPMSG-NH2), the protease stability result with proteinase K was “significantly increased protease resistance”.
On to MRYIYVLRLKSWCGGASARSSPRSCATKLLG [MP09], for which the “Second order rate constant” value in data set [1] (setting [3]) is given as 0.52 ± 0.01^d M^−1 s^−1. The “initial rate (biphasic kinetics)” value in data set [1] (standard conditions, en route to being labeled twice) is 0.52 M⁻¹ s⁻¹.
“MQNSKHRPRRCLRLLPLLRGHLHRMFRERG-NH2 [MP21]”: the Rate in data set [1] stood at 2.00 M⁻¹ s⁻¹.
Take “MRHYHLTCFQGFRIFRRTVDSLEMEISLG-NH2 [MP18]”: the Rate in data set [1] is 0.17 M⁻¹ s⁻¹.
Consider KMTKDCFFSFL-NH2 [MP01-T, KMTKDCFFSFL], for which the “Second order rate constant” value in data set [1] (setting [3]) was 0.06 M⁻¹ s⁻¹. In addition, in data set [1], the “reactivity with the CA (in words)” value is listed as “severely diminished activity”.
Molecule “MNRIFHKRSTYQMVFGRCSDFTSTYHVLISYG-NH2 [MP25]” displayed a Rate in data set [1] of 0.25 M⁻¹ s⁻¹.
“MRTPIKFAPRLSQPFCPFRKQHQLHLHPLIEG-NH2 [MP04]”: the “Second order rate constant” value in data set [1] (setting [3]) was 0.24 ± 0.01 M⁻¹ s⁻¹.
With “MGHLHICMVWRVNTSGHILSVGHKSYSSHKTG-NH2 [MP13]”, the Rate in data set [1] was determined as 2.41 M⁻¹ s⁻¹.
With “MNQKYKMAKAAFFAFLEHLKKRKLYPMSG-NH2 [Gen4(C11A)]”, the “protease stability in presence of CA (noncovalent)” value on proteinase K (with 10×CA (1 mM CA)) is “improved protease stability”.
On to “MHQKYKMAKACFFAFLAHHKKRKLYPMSG-NH2 [triple alanine variant]”, for which the “Second order rate constant” value in data set [1] (setting [2]) amounted to 1.82 M⁻¹ s⁻¹. The “fold increase of second order rate constant relative to MP01” value in data set [1] came to 6.3 fold.
For “MHQKYKMAKACFFAFLEHLKKRKLYPMSG-NH2 [Gen3_1]”, the “reactivity with the CA (in words)” value in data set [1] is reported as “increased the rate of reaction”.
“MKTFSSDQRFSKKCYRIYFHKLRQRNHNTSVG-NH2 [MP07]”: in data set [1] (setting [3]), the “Second order rate constant” value is 0.91 ± 0.14^a M^−1 s^−1.
In data set [1], “MHLRMIRYLNRRRHLCHVVEIRHGLFASREIG-NH2 [MP16]” gave a Rate of 0.19 M⁻¹ s⁻¹.
With “MHQKYKMAAACFFAFLAHLKKRKLYPMSG-NH2 [Gen 2-K9A]”, the “reactivity with the CA (in words)” value in data set [1] is listed as “no alteration”.
Turning to “MRRTPSTRARGRVFLLPTLRFFITLCNLNG-NH2 [MP24]”, the Rate in data set [1] amounted to 0.02 M⁻¹ s⁻¹.
On to “MHQKYKMTKDSFFSFLAHHKKRKLYPMSG-NH2 [SEQ ID NO: 91]”, for which the “reactivity with the CA (in words)” value in data set [1] is on record as “all reactivity was lost”.
On to “MRSTHQRVRRPRNLCSFKHKWLIKFLKTLTG-NH2 [MP22]”, for which, in data set [1], the Rate stood at 4.94 M⁻¹ s⁻¹.
For “MHQKYKMTKDCFFSFLAHVKKRKLYPMSG-NH2 [MP01-H19V]”, in data set [1], the “reactivity with the CA (in words)” value was “progressively improved rate constants”.
The molecule “MLFMRLTKKTMATKFCPFRRKRKHRERRALYG-NH2 [MP27]” came in with a Rate in data set [1] of 0.61 M⁻¹ s⁻¹.
The same measure, in the same setting: then “MHMHKTTSYRIRVLVGVDVYRMSHTCLTSSSG-NH2 [MP19]”, with 0.21 M⁻¹ s⁻¹.
As for MQHEDLCTWYGFCPSGNFTPRNLRGDSDG [MP08], the “Second order rate constant” value is 0.04 M⁻¹ s⁻¹ in data set [1] (setting [2]) and 0.04^d M^−1 s^−1 in data set [1] (setting [3]).
In turn, “MSSGTHYGILNMVIRCHLVKNQTSQMVVLTTG-NH2 [MP14]” showed a Rate in data set [1] of 0.12 M⁻¹ s⁻¹.
In the case of “MNGHYPCYLITSVLVGATTSGVPVVVHLRVG-NH2 [MP17]”, in data set [1], the Rate came to 0.11 M⁻¹ s⁻¹.
As to “MHQKYKMAKACFFAFLAHLAKRKLYPMSG-NH2 [Gen 2-K20A]”, in data set [1], the “reactivity with the CA (in words)” value was “no alteration”.
For “MNQKYKMAKACFFAFLAHLKKRKLYPMSG-NH2 [Gen3_2]”, the “reactivity with the CA (in words)” value in data set [1] is “increased the rate of reaction”.
For the molecule “MTSVTASLLMHFCPIRAHITNKPSFNPSG-NH2 [MP03]”, the “Second order rate constant” value in data set [1] (setting [3]) was 0.04 M⁻¹ s⁻¹.
In the case of “MPNYGPLSPSQPSHGYTFWMVPIWDNSHNAAG-NH2 [MP02]”, the “Second order rate constant” value in data set [1] (footnote b: construct with the full length C-terminal region (-SGSLGHHHHHHRL)) is “No Reaction^b”. Moreover, the “reactivity with the CA (in words)” value in data set [1] was “did not react”.
With “MHQKYKMTKDCFFSFLAHLKKRKLYPMSG-NH2 [MP01-H19L]”, in data set [1], the “fold increase of second order rate constant relative to MP01” value is 7.5 fold.
